Laboratory results taken from patent US20250161228A1, “COMPOSITIONS COMPRISING ULTRAFINE BUBBLES AND METHODS OF USING THEREOF IN A METHOD OF PRODUCING AND DELIVERING ACTIVE PHARMACEUTICAL INGREDIENTS AND OTHER DISSOLVED SOLUTES” (Hydrosome IP, LLC, priority 2023, published 2025).

Tested on: Human embryonic kidney (HEK) cells
Assay: Intracellular zinc uptake study, colorimetric assay at 540 nm
Format: cell-based
Method: Human embryonic kidney (HEK) cells were treated with a composition prepared in accordance with the disclosure, the composition comprising zinc in a Cellular Hydration Water Advanced Zinc Formulation (Zinc Formulation) to test intracellular zinc uptake in vitro. The composition comprised 93 micromolar zinc (II) ions. The HEK cells were treated with compositions comprising 10%, 50%, or 100% Zinc Formulation. Zinc content was measured at 15, 30, 45, and 60 minutes using a colorimetric assay measuring light absorbance at 540 nm. The changes in intracellular zinc content were compared to a control group of HEK cells treated with a ZnSO4 solution.

SMILES: O=S(=O)([O-])[O-].[Zn+2] [ZnSO4]
- increase in intracellular zinc content (10% composition or its ZnSO4 control, 30 minutes): 20.4%
- increase in intracellular zinc content (50% composition or its ZnSO4 control, 15 minutes): 42%
- increase in intracellular zinc content (50% composition or its ZnSO4 control, 30 minutes): 29.6%
- increase in intracellular zinc content (50% composition or its ZnSO4 control, 60 minutes): 42.2%
